Assay results reported in patent publication US8962621B2 (Shanghai Institute of Pharmaceutical Industry, priority 2010, dated 2015).
Read-outs that look alike come from different tables or passages of the source. Blank lines part the entries; values can stand above or below the compound they belong to.

Columns and labels:
[1] = Acute toxicity experiment (single oral gavage); details: mouse, in vivo
5-HT Transporter (hSERT) = 5-HT Transporter (hSERT) (Homo sapiens, UniProt P31645); assay: Inhibition of [3H]-5-HT reuptake in HEK 293 cells stably expressing hSERT; details: for inhibition at 10 µM: HEK293, read-out: 5-HT Reuptake Inhibition; for 5-HT Reuptake Inhibition: 10 μmol/L final concentration (b487 prints 0.1 mmol/L), HEK 293 hSERT cells, [3H]-5-HT;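 on all read-outs here: compound preincubated 10 min at 30 °C, then 10 min uptake, filter-bound radioactivity counted by scintillation, inhibition relative to total (blank) minus non-specific (positive control) uptake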
Chain of 5-HT Transporter (hSERT) (P31645 whole entry): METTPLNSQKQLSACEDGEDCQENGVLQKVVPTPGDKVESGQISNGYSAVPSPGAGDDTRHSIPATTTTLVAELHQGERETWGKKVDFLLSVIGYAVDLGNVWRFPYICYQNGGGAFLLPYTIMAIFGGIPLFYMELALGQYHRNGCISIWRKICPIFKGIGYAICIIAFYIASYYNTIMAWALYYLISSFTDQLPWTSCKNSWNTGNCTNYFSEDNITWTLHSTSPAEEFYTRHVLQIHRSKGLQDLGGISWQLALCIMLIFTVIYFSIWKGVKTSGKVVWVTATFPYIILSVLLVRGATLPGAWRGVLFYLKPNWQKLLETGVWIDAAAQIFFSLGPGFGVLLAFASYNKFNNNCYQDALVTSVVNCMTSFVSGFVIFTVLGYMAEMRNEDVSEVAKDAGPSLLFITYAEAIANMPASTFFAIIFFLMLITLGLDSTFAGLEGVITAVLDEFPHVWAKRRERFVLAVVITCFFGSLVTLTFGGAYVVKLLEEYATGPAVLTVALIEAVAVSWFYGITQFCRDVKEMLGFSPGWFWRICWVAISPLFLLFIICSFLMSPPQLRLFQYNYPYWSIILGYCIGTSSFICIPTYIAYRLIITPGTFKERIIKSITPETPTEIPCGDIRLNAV

male ICR mice = assay: Mice tail suspension test; assay type: in vivo; details: for IT (sec), immobility time: 20.0 mg/kg single intragastric administration, 1 h before test, 4 min observation, n=12; for Improvement (%): 20.0 mg/kg single oral administration, versus blank control IT; for effect on immobility time in the tail suspension test (in words): efficacy similar to Venlafaxine
Procedure: Through intragastric administration, 10 mL·kg^−1 of each sample (physiological saline for the blank control group) is administrated. After 1 h of the treatment, the mouse is held with a medical tape at a position around 2 cm from the tip of its tail and hung upside-down in the suspension cage with its head 5 cm away from the bottom of the cage. The observation starts right after the mouse is suspended for 2 min and continues for 4 min. The time during which the mouse is immobile (no struggling or only tiny movements of its body/limbs) in this 4 min is accumulated (IT, immobility time). The percentage of the improvement is calculated according to the equation: Improvement %=[IT (blank control group)−IT (compound treatment group)]/IT (blank control group)×100%

NA Transporter (hNAT) = NA Transporter (hNAT) (Homo sapiens, UniProt P23975); assay: Inhibition of [3H]-NA reuptake in HEK 293 cells stably expressing hNAT; details: for inhibition at 10 µM: HEK293, read-out: NA Reuptake Inhibition; for NA Reuptake Inhibition: 10 μmol/L final concentration (b487 prints 0.1 mmol/L), HEK 293 hNAT cells, [3H]-NA
Chain of NA Transporter (hNAT) (P23975 whole entry): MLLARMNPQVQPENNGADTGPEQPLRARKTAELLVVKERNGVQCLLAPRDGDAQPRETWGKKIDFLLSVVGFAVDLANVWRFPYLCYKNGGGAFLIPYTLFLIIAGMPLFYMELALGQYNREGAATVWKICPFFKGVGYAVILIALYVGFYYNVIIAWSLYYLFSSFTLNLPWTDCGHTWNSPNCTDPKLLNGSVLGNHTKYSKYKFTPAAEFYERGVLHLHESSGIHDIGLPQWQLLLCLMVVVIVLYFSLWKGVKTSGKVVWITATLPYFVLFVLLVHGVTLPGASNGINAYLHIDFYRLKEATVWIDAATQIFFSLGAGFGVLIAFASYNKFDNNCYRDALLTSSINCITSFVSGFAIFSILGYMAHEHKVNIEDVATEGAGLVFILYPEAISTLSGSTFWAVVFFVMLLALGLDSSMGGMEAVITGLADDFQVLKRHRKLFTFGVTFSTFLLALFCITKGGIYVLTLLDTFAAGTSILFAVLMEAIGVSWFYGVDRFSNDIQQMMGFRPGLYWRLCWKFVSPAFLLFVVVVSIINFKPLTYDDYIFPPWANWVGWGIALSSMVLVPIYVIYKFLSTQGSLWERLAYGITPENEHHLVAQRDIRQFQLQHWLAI

[2] = system: Histidine auxotroph mutant of mouse salmonella TA97, TA98, TA100 and TA102; assay type: cell-based; details: for bacteriostatic action: 5000 μg per dish, TA98 without S9 and TA97 with S9, none at other dosages; for Ames test result: TA97, TA98, TA100, TA102, with or without S9, all test dosages
Source text: 5. […] 6. Bacterial Reverse Mutation Test of Compounds VI-1 VI-2 and VI16 • Strains: Histidine auxotroph mutant of mouse salmonella TA97, TA98, TA100 and TA102. • Test method: The one reported in Maron DM et al: (1983) Mutay Res. 113, 173-216 is used. • Results: The test consists of two parts, i.e., −S9 and +S9. […] No bacteriostatic actions to all the strains are observed at all the other dosages, and the growth background is good.

DA Transporter (hDAT) = DA Transporter (hDAT) (Homo sapiens, UniProt Q01959); assay: Inhibition of [3H]-DA reuptake in HEK 293 cells stably expressing hDAT; details: for inhibition at 10 µM: HEK293, read-out: DA Reuptake Inhibition; for DA Reuptake Inhibition: 10 μmol/L final concentration (b487 prints 0.1 mmol/L), HEK 293 hDAT cells, [3H]-DA
Chain of DA Transporter (hDAT) (Q01959 whole entry): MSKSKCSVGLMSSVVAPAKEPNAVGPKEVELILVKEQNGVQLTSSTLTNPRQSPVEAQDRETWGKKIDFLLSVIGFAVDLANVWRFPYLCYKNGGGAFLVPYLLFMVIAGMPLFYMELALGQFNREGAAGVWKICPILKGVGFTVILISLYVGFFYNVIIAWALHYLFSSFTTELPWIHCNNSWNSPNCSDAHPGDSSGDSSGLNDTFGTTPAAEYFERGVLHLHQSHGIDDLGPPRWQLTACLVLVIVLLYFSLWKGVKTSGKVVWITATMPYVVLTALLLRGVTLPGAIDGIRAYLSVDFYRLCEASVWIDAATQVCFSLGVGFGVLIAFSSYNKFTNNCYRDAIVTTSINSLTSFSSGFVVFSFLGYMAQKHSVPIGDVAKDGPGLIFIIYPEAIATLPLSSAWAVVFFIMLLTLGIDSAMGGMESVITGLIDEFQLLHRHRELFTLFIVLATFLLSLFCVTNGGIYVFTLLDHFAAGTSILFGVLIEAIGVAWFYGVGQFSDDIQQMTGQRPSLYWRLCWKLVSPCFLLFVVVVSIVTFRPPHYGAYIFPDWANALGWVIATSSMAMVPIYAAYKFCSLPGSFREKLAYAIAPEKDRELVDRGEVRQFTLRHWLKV

male Kunming mice = assay: Mice forced swimming test; assay type: in vivo; details: for effect in the forced swimming test (in words): 20 mg/kg; for IT (sec), immobility time: 20.0 mg/kg single intragastric administration, 1 h before test, last 4 min of 6 min, n=12
Procedure: Through intragastric administration, 10 mL·kg^−1 of each sample (physiological saline for the blank control group) is administrated. The mice are pre-screened for swimming one day before the actual test. The mouse is placed into water (25° C., 10 cm deep) in a glass tank (height 20 cm, diameter 14 cm) and forced to swim for 6 min. Those who stop swimming at around 70-160 s are chosen for the actual test which starts 24 h later. After 1 h of the administration, the forced swimming test is performed by placing the animal into the above-mentioned environment to swim for 6 min. The accumulative immobility time for the last 4 min is recorded. Data is statistically analyzed with t-test.

rats = assay: Learned helplessness experiment (conditioned avoidance test); assay type: in vivo
Source text: (1) Principles • This is an animal model of depression. In this experiment, an animal is placed under conditions with aversive stimulus which it can't escape. […] This is a well recognized depression state, in which the level of catecholamine in the animal's brain is reduced. An antidepressant can act against this state. The learned helplessness model is sensitive to a variety of antidepressants used in a sub-long period (3-7 d), including tricyclic antidepressants, monoamine oxidase inhibitors, monoamine reuptake inhibitors and atypical antidepressants.
(2) Test Method • The animals are grouped. The pre-shock animals are generated the first day by performing inescapable electric shock. The pre-shock animals are given foot electric shock (0.8 mA, 15 s) for 60 times (1 min interval). Rats in the control group are only put into the cage for a same period of time but without any electric shock. • The administration of drugs starts the next day and lasts for one week. […] The conditioned avoidance test is conducted 24 h after the last administration to determine the number of times of successful avoidance and the incubation period of escape.

[3] = 30 mg/kg, one week, test 24 h after last administration, n = 10
[4] = Venlafaxine 30 mg/kg, VI-2 at 3 doses (20, 10, 5 mg/kg)

SMILES: CN(C)CCC(c1csc2ccccc12)N1CCCCC1 (centres unmarked)
- LD50 ([1]; mice, single oral gavage, Bliss method, read-out: LD50): 870 mg/kg
- inhibition effect towards the reuptake of 5-HT (in words) (5-HT Transporter (hSERT)): relatively strong inhibition effect
- inhibition at 10 µM (5-HT Transporter (hSERT)): 90.5%
- IT (sec), immobility time (male ICR mice): 45.21 ± 28.19 s
- Improvement (%) (male ICR mice): 54.42%
- effect on immobility time in the tail suspension test (in words) (male ICR mice; 20 mg/kg): significant reduction in the immobility time
- inhibition at 10 µM (NA Transporter (hNAT)): 92.1%
- bacteriostatic action [2]: bacteriostatic action is showed
- Ames test result [2]: negative
- inhibition at 10 µM (DA Transporter (hDAT)): 80.2%
- effect in the forced swimming test (in words) (male Kunming mice): significant reduction in the immobility time
- IT (sec), immobility time (male Kunming mice): 62.1 ± 42.9 s

SMILES: CCN(CC)CCC(c1ccc(Cl)c(Cl)c1)N1CCCC1 (centres unmarked) [VI-1, N,N-diethyl-3-(3,4-dichlorophenyl)-3-(pyrrolidin-1-yl)-propylamine]
- LD50 ([1]; po): 1050 mg/kg
- inhibition effect towards the reuptake of 5-HT (in words) (5-HT Transporter (hSERT)): relatively strong inhibition effect
- inhibition at 10 µM (5-HT Transporter (hSERT)): 98.2%
- IT (sec), immobility time (male ICR mice): 48.17 ± 38.29 s
- Improvement (%) (male ICR mice): 51.44%
- effect on immobility time in the tail suspension test (in words) (male ICR mice; 20 mg/kg): significant reduction in the immobility time
- inhibition at 10 µM (NA Transporter (hNAT)): 101%
- bacteriostatic action [2]: bacteriostatic action is showed
- Ames test result [2]: negative
- inhibition at 10 µM (DA Transporter (hDAT)): 101%
- effect in the forced swimming test (in words) (male Kunming mice): significant reduction in the immobility time
- IT (sec), immobility time (male Kunming mice): 57.1 ± 37.8 s

- inhibition at 10 µM (5-HT Transporter (hSERT)): 95.3%
- inhibition at 10 µM (NA Transporter (hNAT)): 91.2%
- inhibition at 10 µM (DA Transporter (hDAT)): 75.6%
SMILES: CN(C)CCC(c1cc2ccccc2s1)N1CCCC1 (centres unmarked) [VI-19, N,N-dimethyl-3-(benzothiophen-2-yl)-3-(pyrrolidin-1-yl)-propylamine]
- IT (sec), immobility time (male ICR mice): 50.28 ± 21.30 s
- Improvement (%) (male ICR mice): 49.31%
- effect on immobility time in the tail suspension test (in words) (male ICR mice; 20 mg/kg): significant reduction in the immobility time
- effect in the forced swimming test (in words) (male Kunming mice): significant reduction in the immobility time
- IT (sec), immobility time (male Kunming mice): 60.7 ± 26.7 s

SMILES: CN(C)CCC(c1cc2ccccc2s1)N1CCCCC1 (centres unmarked) [VI-22, N,N-dimethyl-3-(benzothiophen-2-yl)-3-piperidinyl-propylamine]
- inhibition effect towards the reuptake of 5-HT (in words) (5-HT Transporter (hSERT)): relatively strong inhibition effect
- 5-HT Reuptake Inhibition (5-HT Transporter (hSERT)): 96.3%
- IT (sec), immobility time (male ICR mice): 65.25 ± 28.39 s
- Improvement (%) (male ICR mice): 34.22%
- NA Reuptake Inhibition (NA Transporter (hNAT)): 99.8%
- DA Reuptake Inhibition (DA Transporter (hDAT)): 96.5%
- effect in the forced swimming test (in words) (male Kunming mice): significant reduction in the immobility time
- IT (sec), immobility time (male Kunming mice): 75.4 ± 40.3 s

SMILES: CN(C)CCC(c1c[nH]c2ccccc12)N1CCOCC1 (centres unmarked) [VI-31, N,N-dimethyl-3-(indol-3-yl)-3-morpholinyl-propylamine]
- inhibition effect towards the reuptake of 5-HT (in words) (5-HT Transporter (hSERT)): relatively strong inhibition effect
- 5-HT Reuptake Inhibition (5-HT Transporter (hSERT)): 87.9%
- IT (sec), immobility time (male ICR mice): 78.36 ± 23.00 s
- Improvement (%) (male ICR mice): 20.84%
- NA Reuptake Inhibition (NA Transporter (hNAT)): 88.1%
- DA Reuptake Inhibition (DA Transporter (hDAT)): 75.6%
- effect in the forced swimming test (in words) (male Kunming mice): significant difference from that of the blank control
- IT (sec), immobility time (male Kunming mice): 99.7 ± 43.7 s

SMILES: COc1ccc2cc(C(CCN(C)C)N3CCCC3)ccc2c1Cl (centres unmarked) [VI-36, N,N-dimethyl-3-(5-chloro-6-methoxynaphthalen-2-yl)-3-(pyrrolidin-1-yl)-propylamine]
- inhibition at 10 µM (5-HT Transporter (hSERT)): 98.3%
- IT (sec), immobility time (male ICR mice): 39.91 ± 18.35 s
- Improvement (%) (male ICR mice): 59.29%
- effect on immobility time in the tail suspension test (in words) (male ICR mice; 20 mg/kg): significant reduction in the immobility time
- inhibition at 10 µM (NA Transporter (hNAT)): 97.8%
- inhibition at 10 µM (DA Transporter (hDAT)): 87.2%
- effect in the forced swimming test (in words) (male Kunming mice): significant difference from that of the blank control
- IT (sec), immobility time (male Kunming mice): 90.6 ± 48.0 s

SMILES: CN(C)CCCC(c1csc2ccccc12)N1CCOCC1 (centres unmarked) [VI-46, N,N-dimethyl-4-(benzothiophen-3-yl)-4-morpholinyl-butylamine]
- inhibition effect towards the reuptake of 5-HT (in words) (5-HT Transporter (hSERT)): relatively strong inhibition effect
- 5-HT Reuptake Inhibition (5-HT Transporter (hSERT)): 92.3%
- IT (sec), immobility time (male ICR mice): 86.19 ± 35.87 s
- Improvement (%) (male ICR mice): 13.01%
- NA Reuptake Inhibition (NA Transporter (hNAT)): 89.5%
- DA Reuptake Inhibition (DA Transporter (hDAT)): 78.0%
- effect in the forced swimming test (in words) (male Kunming mice): significant difference from that of the blank control
- IT (sec), immobility time (male Kunming mice): 97 ± 48.5 s

SMILES: COc1ccc(C(CN(C)C)C2(O)CCCCC2)cc1 (centres unmarked) [Venlafaxine, reference compound]
- immobility time (male ICR mice; 20 mg/kg): 36.97 ± 21.10 s
- IT (sec), immobility time (male ICR mice): 36.97 ± 21.10 s
- Improvement (%) (male ICR mice): 62.73%
- inhibition at 10 µM (NA Transporter (hNAT)): 96.4%
- Incubation period of escape (rats; [3]): 72.8 ± 77.26 s
- Number of times of successful avoidance (rats; [3]): 19.4 ± 6.88
- incubation period of escape (in words) (rats; [4]): significantly shortened incubation period of escape
- times of successful avoidance (in words) (rats; [4]): relatively more times of successful avoidance
- inhibition at 10 µM (DA Transporter (hDAT)): 52.4%
- IT (sec), immobility time (male Kunming mice): 77.4 ± 47.2 s
